test system: not listed separately; experiment: Evaluation of total body clearance (CLtot), intravenous administration; assay type: in vivo, Sprague-Dawley (SD); conditions: rat (SD), intravenous administration 0.5-10 mg/kg; CLtot = dose/AUC
Procedure: Dose: Intravenous administration with designated doses was selected. (Doses were changed depending on compounds.) • 0.5-10 mg/kg (n=2-3) Preparation of dosing formulation: The dosing solution was prepared by dissolving in an adequate solvent. Administration method: The dosing solution was injected into the tail vein by a syringe with a needle Blood sampling: The blood was collected at the scheduled time and obtained the plasma. Plasma concentrations of the compound were measured by LC/MS/MS. Statistical analysis: Area under the plasma concentration-time curve (AUC) of the compound was calculated by pharmacokinetic analysis software, WinNonlin™ and CLtot was calculated by dividing the dose by AUC.

| SMILES | rat_CLt [mL/min/kg] |
| --- | --- |
| COc1ccc(S(=O)(=O)N(CC(C)C)CC(O)C(Cc2ccc(OCc3ccccc3-c3nc4n(c3C(=O)O)CCCC4)cc2)NC(=O)OC2COC3(C)OCCC23)cc1 (stereo not shown) [Compound I-125] | 3.89 |
| COc1ccc(S(=O)(=O)N(CC(C)C)CC(O)C(Cc2ccc(OCc3ccccc3NC(=O)c3sc4c(c3C(=O)O)CC(C)(C)CC4)cc2)NC(=O)OC2COC3(C)OCCC23)cc1 (stereo not shown) [Compound I-214] | 0.297 |
| COc1ccc(S(=O)(=O)N(CC(C)C)CC(O)C(Cc2ccc(NCc3ccc(F)c(-c4sc5c(c4C(=O)O)CC(C)(C)CC5)c3)cc2)NC(=O)OC2COC3(C)OCCC23)cc1 (stereo not shown) [Compound I-287] | 2.73 |
| COc1ccc(S(=O)(=O)N(CC(C)C)CC(O)C(Cc2ccc(NCc3ncccc3-c3sc4c(c3C(=O)O)CC(C)(C)CC4)cc2)NC(=O)OC2COC3(C)OCCC23)cc1 (stereo not shown) [Compound I-305] | 1.55 |
| COc1ccc(S(=O)(=O)N(CC(C)C)CC(O)C(Cc2ccc(N(CCCc3sc4c(c3C(=O)O)CC(C)(C)CC4)Cc3ccccc3)cc2)NC(=O)OC2COC3(C)OCCC23)cc1 (stereo not shown) [Compound I-371] | 4.69 |
| COc1ccc(S(=O)(=O)N(CC(C)C)CC(O)C(Cc2ccc(NCC3COCCC3c3sc4c(c3C(=O)O)CC(C)(C)CC4)cc2)NC(=O)OC2COC3(C)OCCC23)cc1 (stereo not shown) [Compound I-399] | 0.487 |
| COc1ccc(S(=O)(=O)N(CC(C)C)CC(O)C(Cc2ccc(N(C)Cc3ccccc3C(=O)Nc3sc4c(c3C(=O)O)CC(C)(C)CC4)cc2)NC(=O)OC2COC3(C)OCCC23)cc1 (stereo not shown) [Compound I-407] | 0.31 |
| COc1ccc(S(=O)(=O)N(CC(C)C)CC(O)C(Cc2ccc(NCC3CCCC3c3sc4c(c3C(=O)O)CC(C)(C)CC4)cc2)NC(=O)OC2COC3(C)OCCC23)cc1 (stereo not shown) [Compound I-409] | 0.873 |

molecular target: HIV-1 PR (Human immunodeficiency virus type 1 group M subtype B, UniProt P04585); experiment: HIV-protease inhibitory activity assay (FRET peptide substrate); assay type: biochemical; conditions: Test Example 1
Outline: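 HIV-1 PR (0.83 ng) preincubated with compounds 20 min at room temperature in 0.1 mol/L NaAc, 0.5 mol/L NaCl, 1 mmol/L EDTA, 1 mmol/L DTT, 0.05% Tween 20, pH 4.8. Cleavage of HiLyte Fluor 488/QXL 520 FRET peptide (2 μmol/L) read after 60 minutes at 485/535 nm; IC50 from four-parameter logistic fit.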

| SMILES | IC50 [nM] |
| --- | --- |
| COc1ccc(S(=O)(=O)N(CC(C)C)CC(O)C(Cc2ccc(OCc3ccccc3-c3nc4n(c3C(=O)O)CCCC4)cc2)NC(=O)OC2COC3(C)OCCC23)cc1 (stereo not shown) [Compound I-125] | 1.58 |
| COc1ccc(S(=O)(=O)N(CC(C)C)CC(O)C(Cc2ccc(OCc3ccccc3NC(=O)c3sc4c(c3C(=O)O)CC(C)(C)CC4)cc2)NC(=O)OC2COC3(C)OCCC23)cc1 (stereo not shown) [Compound I-214] | 1.89 |
| COc1ccc(S(=O)(=O)N(CC(C)C)CC(O)C(Cc2ccc(NCc3ccc(F)c(-c4sc5c(c4C(=O)O)CC(C)(C)CC5)c3)cc2)NC(=O)OC2COC3(C)OCCC23)cc1 (stereo not shown) [Compound I-287] | 2.02 |
| COc1ccc(S(=O)(=O)N(CC(C)C)CC(O)C(Cc2ccc(NCc3ncccc3-c3sc4c(c3C(=O)O)CC(C)(C)CC4)cc2)NC(=O)OC2COC3(C)OCCC23)cc1 (stereo not shown) [Compound I-305] | 1.99 |
| COc1ccc(S(=O)(=O)N(CC(C)C)CC(O)C(Cc2ccc(N(CCCc3sc4c(c3C(=O)O)CC(C)(C)CC4)Cc3ccccc3)cc2)NC(=O)OC2COC3(C)OCCC23)cc1 (stereo not shown) [Compound I-371] | 10.5 |
| COc1ccc(S(=O)(=O)N(CC(C)C)CC(O)C(Cc2ccc(NCC3COCCC3c3sc4c(c3C(=O)O)CC(C)(C)CC4)cc2)NC(=O)OC2COC3(C)OCCC23)cc1 (stereo not shown) [Compound I-399] | 1.94 |
| COc1ccc(S(=O)(=O)N(CC(C)C)CC(O)C(Cc2ccc(N(C)Cc3ccccc3C(=O)Nc3sc4c(c3C(=O)O)CC(C)(C)CC4)cc2)NC(=O)OC2COC3(C)OCCC23)cc1 (stereo not shown) [Compound I-407] | 3.77 |
| COc1ccc(S(=O)(=O)N(CC(C)C)CC(O)C(Cc2ccc(NCC3CCCC3c3sc4c(c3C(=O)O)CC(C)(C)CC4)cc2)NC(=O)OC2COC3(C)OCCC23)cc1 (stereo not shown) [Compound I-409] | 2.45 |
| COc1ccc(S(=O)(=O)N(CC(C)C)CC(O)C(Cc2ccc(N(C)CCOc3ccccc3-c3sc4c(c3C(=O)O)CC(C)(C)CC4)cc2)NC(=O)OC2COC3OCCC23)cc1 (stereo not shown) [Compound I-864] | 2.25 |
| COc1ccc(S(=O)(=O)N(CC(C)C)CC(O)C(Cc2ccc(N3CCC(C(=O)Nc4sc5c(c4C(=O)O)CC(C)(C)CC5)C3)cc2)NC(=O)OC2COC3OCCC23)cc1 (stereo not shown) [Compound I-865] | 2.21 |
| COc1ccc(S(=O)(=O)N(CC(C)C)CC(O)C(Cc2ccc(NCc3cc(C(F)(F)F)ccc3-c3sc4c(c3C(=O)O)CC(C)(C)CC4)cc2)NC(=O)OC2COC3OCCC23)cc1 (stereo not shown) [Compound I-868] | 4.3 |
| COc1ccc(S(=O)(=O)N(CC2CCCC2)CC(O)C(Cc2ccc(NCc3cc(C(F)(F)F)ccc3-c3sc4c(c3C(=O)O)CC(C)(C)CC4)cc2)NC(=O)OC2COC3OCCC23)cc1 (stereo not shown) [Compound I-870] | 9.33 |
| CC(C)CN(CC(O)C(Cc1ccc(NCc2cc(C(F)(F)F)ccc2-c2sc3c(c2C(=O)O)CC(C)(C)CC3)cc1)NC(=O)OC1COC2OCCC12)S(=O)(=O)c1ccc2ncsc2c1 (stereo not shown) [Compound I-871] | 4.93 |
| CC1(C)CCc2sc(-c3ccc(C(F)(F)F)cc3CNc3ccc(CC(NC(=O)OC4COC5OCCC45)C(O)CN(CC4CCC4)S(=O)(=O)c4ccc5ncsc5c4)cc3)c(C(=O)O)c2C1 (stereo not shown) [Compound I-872] | 4.99 |
| CC1(C)CCc2sc(-c3ccc(C(F)(F)F)cc3CNc3ccc(CC(NC(=O)OC4COC5OCCC45)C(O)CN(CC4CCCC4)S(=O)(=O)c4ccc5ncsc5c4)cc3)c(C(=O)O)c2C1 (stereo not shown) [Compound I-873] | 8.43 |
| CC(C)CN(CC(O)C(Cc1ccc(NCc2cc(C(F)(F)F)ccc2-c2sc3c(c2C(=O)O)CC(C)(C)CC3)cc1)NC(=O)OC1COC2OCCC12)S(=O)(=O)c1ccc2c(c1)OCO2 (stereo not shown) [Compound I-874] | 5.12 |
| CC1(C)CCc2sc(-c3ccc(C(F)(F)F)cc3CNc3ccc(CC(NC(=O)OC4COC5OCCC45)C(O)CN(CC4CCC4)S(=O)(=O)c4ccc5c(c4)OCO5)cc3)c(C(=O)O)c2C1 (stereo not shown) [Compound I-875] | 6.78 |
| CC1(C)CCc2sc(-c3ccc(C(F)(F)F)cc3CNc3ccc(CC(NC(=O)OC4COC5OCCC45)C(O)CN(CC4CCCC4)S(=O)(=O)c4ccc5c(c4)OCO5)cc3)c(C(=O)O)c2C1 (stereo not shown) [Compound I-876] | 7.13 |
| COc1ccc(S(=O)(=O)N(CC(C)C)CC(O)C(Cc2ccc(NCC3CCCC3c3sc4c(c3C(=O)O)CC(C)(C)CC4)cc2)NC(=O)OC2COC3OCCC23)cc1 (stereo not shown) [Compound I-878] | 2.94 |
| CC(C)CN(CC(O)C(Cc1ccc(N(C)Cc2ccccc2C(=O)Nc2sc3c(c2C(=O)O)CC(C)(C)CC3)cc1)NC(=O)OC1COC2OCCC12)S(=O)(=O)c1ccc2c(c1)OCO2 (stereo not shown) [Compound I-879] | 3.78 |
| COc1ccc(S(=O)(=O)N(CC(C)C)CC(O)C(Cc2ccc(NCC3=C(c4sc5c(c4C(=O)O)CC(C)(C)CC5)CCC(F)(F)C3)cc2)NC(=O)OC2COC3OCCC23)cc1 (stereo not shown) [Compound I-880] | 4.7 |

| SMILES | IC50 [nM] |
| --- | --- |
| COc1ccc(S(=O)(=O)N(CC(C)C)CC(O)C(Cc2ccc(N(C)CC3=C(c4sc5c(c4C(=O)O)CC(C)(C)CC5)CCC(F)(F)C3)cc2)NC(=O)OC2COC3OCCC23)cc1 (stereo not shown) [Compound I-881] | 5.89 |
| COc1ccc(S(=O)(=O)N(CC(C)C)CC(O)C(Cc2ccc(NCC3CC(C)(C)CC3c3sc4c(c3C(=O)O)CC(C)(C)CC4)cc2)NC(=O)OC2COC3OCCC23)cc1 (stereo not shown) [Compound I-883] | 2.15 |
| COc1ccc(S(=O)(=O)N(CC(C)C)CC(O)C(Cc2ccc(NCc3ccccc3NC(=O)Nc3sc4c(c3C(=O)O)CC(C)(C)CC4)cc2)NC(=O)OC2COC3OCCC23)cc1 (stereo not shown) [Compound I-884] | 2.03 |
| COc1ccc(S(=O)(=O)N(CC(C)C)CC(O)C(Cc2ccc(NCc3nc4ccccc4cc3C(=O)Nc3sc4c(c3C(=O)O)CC(C)(C)CC4)cc2)NC(=O)OC2COC3OCCC23)cc1 (stereo not shown) [Compound I-885] | 3.48 |
| COc1ccc(S(=O)(=O)N(CC(C)C)CC(O)C(Cc2ccc(NCC3CC(C)(C)CCC3c3sc4c(c3C(=O)O)CC(C)(C)CC4)cc2)NC(=O)OC2COC3OCCC23)cc1 (stereo not shown) [Compound I-886] | 3.68 |
| COc1ccc(S(=O)(=O)N(CC(C)C)CC(O)C(Cc2ccc(NCC3CC(C)(C)CCC3c3sc4c(c3C(=O)O)CC(C)(C)CC4)cc2)NC(=O)OC2COC3OCCC23)cc1 (stereo not shown) [Compound I-887] | 2.85 |
| COc1ccc(S(=O)(=O)N(CC(C)C)CC(O)C(Cc2ccc(N3Cc4nc5ccccc5cc4C3=O)cc2)NC(=O)OC2COC3OCCC23)cc1 (stereo not shown) [Compound I-888] | 2.1 |
| CC(C)CN(CC(O)C(Cc1ccc(CCc2sc3c(c2C(=O)O)CC(C)(C)CC3)cc1)NC(=O)OC1COC2(C)OCCC12O)S(=O)(=O)c1ccc2ncsc2c1 (stereo not shown) [Compound I-889] | 1.49 |
| COc1ccc(S(=O)(=O)N(CC(C)C)CC(O)C(Cc2ccc(NCc3ccccc3C(=O)Nc3sc4c(c3C(=O)O)CC(C)(C)CC4)cc2)NC(=O)OC2COC3(C)OCCC23O)cc1 (stereo not shown) [Compound I-891] | 2.88 |
| COc1ccc(S(=O)(=O)N(CC2CCCC2)CC(O)C(Cc2ccc(NCc3ccccc3C(=O)Nc3sc4c(c3C(=O)O)CC(C)(C)CC4)cc2)NC(=O)OC2COC3(C)OCCC23O)cc1 (stereo not shown) [Compound I-892] | 4.06 |
| COc1ccc(S(=O)(=O)N(CC2CCC2)CC(O)C(Cc2ccc(NCc3ccccc3C(=O)Nc3sc4c(c3C(=O)O)CC(C)(C)CC4)cc2)NC(=O)OC2COC3(C)OCCC23O)cc1 (stereo not shown) [Compound I-893] | 5.83 |
| COc1ccc(S(=O)(=O)N(CC(C)C)CC(O)C(Cc2ccc(OCC3CCN(c4ccc(-c5sc6c(c5C(=O)O)CC(C)(C)CC6)cc4)C3)cc2)NC(=O)OC2COC3(C)OCCC23)cc1 (stereo not shown) [Compound I-894] | 20.4 |
| COc1ccc(S(=O)(=O)N(CC(C)C)CC(O)C(Cc2ccc(OCC3CCN(c4cccc(-c5sc6c(c5C(=O)O)CC(C)(C)CC6)c4)C3)cc2)NC(=O)OC2COC3(C)OCCC23)cc1 (stereo not shown) [Compound I-896] | 16.7 |
| COc1ccc(S(=O)(=O)N(CC(C)C)CC(O)C(Cc2ccc(NCc3ccccc3-c3ccc4[nH]c(C(=O)O)cc4c3)cc2)NC(=O)OC2COC3(C)OCCC23)cc1 (stereo not shown) [Compound I-897] | 2.46 |
| COc1ccc(S(=O)(=O)N(CC(C)C)CC(O)C(Cc2ccc(NCc3ccccc3-c3csc4c(C(=O)O)cccc34)cc2)NC(=O)OC2COC3(C)OCCC23)cc1 (stereo not shown) [Compound I-898] | 1.78 |
| COc1ccc(S(=O)(=O)N(CC(C)C)CC(O)C(Cc2ccc(NCc3ccccc3-c3ccc4c(c3)cc(C(=O)O)n4C)cc2)NC(=O)OC2COC3(C)OCCC23)cc1 (stereo not shown) [Compound I-899] | 1.46 |
| COC(=O)NC(C(=O)NC(Cc1ccccc1)C(O)CN(Cc1ccc(-c2ccc(-c3sc4c(c3C(=O)O)CC(C)(C)CC4)cc2)cc1)NC(=O)C(NC(=O)OC)C(C)(C)C)C(C)(C)C (stereo not shown) [Compound I-900] | 2.9 |
| COC(=O)NC(C(=O)NC(Cc1ccccc1)C(O)CN(Cc1ccc(-c2sc3c(c2C(=O)O)CC(C)(C)CC3)cc1)NC(=O)C(NC(=O)OC)C(C)(C)C)C(C)(C)C (stereo not shown) [Compound I-901] | 2.34 |
| COc1ccc(S(=O)(=O)N(CC(C)C)C[C@@H](O)[C@H](Cc2ccc(OCc3ccccc3-c3sc4c(c3C(=O)O)CC(C)(C)CC4)cc2)NC(=O)O[C@H]2CCC[C@H]3O[C@@H]4OCC[C@@H]4[C@@H]23)cc1 [Compound I-909] | 3.25 |
| CCCCCCCCCCCCCC(=O)Nc1ccc(CN(C)c2ccc(C[C@H](NC(=O)OC3CO[C@@]4(C)OCC[C@@H]34)[C@H](O)CN(CC(C)C)S(=O)(=O)c3ccc(OC)cc3)cc2)c(-c2sc3c(c2C(=O)O)CC(C)(C)CC3)c1 (stereo partly shown) [Compound I-910] | 7.84 |
